These results are taken from ChEMBL document CHEMBL1126541, “Novel water soluble phosphate prodrugs of taxol possessing in vivo antitumor activity” (1993).

Broadly, the T/C is the ratio of treated to control.

Common to all, as to format: functional, Mus musculus
Assay [1] concerns M109. In words: In vivo antitumor activity in M109 (Murine lung carcinoma cells) tumor model after (ip) administration on days 5 and 8 at dose of 70 mg/kg/injection.
Assay [2] deals with M109. In words: In vivo antitumor activity of the taxol was determined in M109 (Murine lung carcinoma cells) tumor model after (ip) administration in 10% Tween 80 in saline on days 5 and 8 at dose of 40 mg/kg/injection in presence of Taxol.
The subject of assay [3] is M109. In words: In vivo antitumor activity in M109 (Murine lung carcinoma cells) tumor model after (ip) administration on days 5 and 8 at dose of 140 mg/kg/injection.
Assay [4] has as its system M109. In words: In vivo antitumor activity of the taxol was determined in M109 (Murine lung carcinoma cells) tumor model after (ip) administration in 10% Tween 80 in saline on days1, 5, and 9 at a dose of 30 mg/kg/injection in presence of Taxol.
Assay [5] has as its system M109. The assay is described as follows: In vivo antitumor activity in M109 (Murine lung carcinoma cells) tumor model after (ip) administration on days 1, 5,and 9 at dose of 100 mg/kg/injection.

In the case of `CC(=O)O[C@H]1C(=O)[C@]2(C)[C@@H](OC(=O)CC(C)(C)c3c(C)cc(C)cc3OP(=O)([O-])[O-])C[C@H]3OC[C@@]3(OC(C)=O)[C@H]2[C@H](OC(=O)c2ccccc2)[C@]2(O)C[C@H](OC(=O)[C@H](O)[C@@H](NC(=O)c3ccccc3)c3ccccc3)C(C)=C1C2(C)C.[Na+].[Na+]`, the T/C in the assay on M109 [1] turned out to be 153%; with M109 [2] it was 144%; in the assay with M109 [3], 156%.

Consider `CC(=O)O[C@H]1C(=O)[C@@]2(C)[C@H]([C@H](OC(=O)c3ccccc3)[C@]3(O)C[C@H](OC(=O)[C@H](OC(=O)CC(C)(C)c4c(C)cc(C)cc4OP(=O)([O-])[O-])[C@@H](NC(=O)c4ccccc4)c4ccccc4)C(C)=C1C3(C)C)[C@]1(OC(C)=O)CO[C@@H]1C[C@@H]2O.[Na+].[Na+]`, for which the T/C stood at 275% in the assay on M109 [4] and 144% with M109 [5].
